{"source": "patent US6358942B1", "about": "“Phenyloxazolidinones having a c-c bond 4-8 membered heterocyclic rings” (Pharmacia & Upjohn Company, priority 1995, dated 2002)", "data": [{"system": "Staphylococcus aureus or Streptococcus species", "assay": "Murine Assay: in vivo antimicrobial activity, survival of mice infected intraperitoneally with bacteria", "settings": "not given", "protocol": "(§1) Antimicrobial activity was tested in vivo using the Murine Assay procedure. Groups of female mice (six mice of 18-20 grams each) were injected intraperitoneally with bacteria which were thawed just prior to use and suspended in brain heart infusion with 4% brewers yeast (Staphylococcus aureus) or brain heart infusion (Streptococcus species). Antibiotic treatment at six dose levels per drug was administered one hour and five hours after infection by either oral intubation or subcutaneous routes. Survival was observed daily for six days. ED50 values based on mortality ratios were calculated using probit analysis. The subject compounds are compared against well-known antimicrobials vancomycin and U-100592 as controls. See “Upjohn Oxazolidinone Antibacterial Agent”, posters presented at the 35th Interscience Conference on Antimicrobial Agents and Chemotherapy.", "units": {"ED50": "mg/kg"}, "values": [{"molecule": "COC(=O)N1CC=C(c2ccc(N3C[C@H](CNC(C)=O)OC3=O)cc2F)CC1", "note": "[Example 57, (S)-(−)-4-[4-[5-[(Acetylamino)methyl]-2-oxo-3-oxazolidinyl]-2-fluorophenyl]-3,6-dihydro-1(2H)-pyridinecarboxylic acid methyl ester]", "ED50": 6.2}, {"molecule": "COC(=O)N1CC=C(c2ccc(N3C[C@H](CNC(C)=O)OC3=O)cc2)CC1", "note": "[Example 62, (S)-(−)-4-[4-[5-[(Acetylamino)methyl]-2-oxo-3-oxazolidinyl]phenyl]-3,6-dihydro-1(2H)-pyridinecarboxylic acid methyl ester]", "ED50": 12}, {"molecule": "COC(=O)N1CC(c2ccc(N3C[C@H](CNC(C)=O)OC3=O)cc2F)C1", "note": "[Example 83, (S)-N-[[3-[3-Fluoro-4-[1-(methoxycarbonyl)-3-azetidinyl]phenyl]-2-oxo-5-oxazolidinyl]methyl]acetamide]", "ED50": 7.5}]}, {"system": "Staphylococcus aureus or Streptococcus species", "assay": "Murine Assay: in vivo antimicrobial activity, survival of mice infected intraperitoneally with bacteria", "settings": "Table 2; female mice; treatment 1 h and 5 h after infection, oral intubation or subcutaneous; survival over six days; probit analysis of mortality ratios", "protocol": "as §1", "units": {"ED50": "mg/kg"}, "values": [{"molecule": "CC(=O)NC[C@H]1CN(c2ccc(C3=CCS(=O)(=O)CC3)cc2)C(=O)O1", "note": "[Example 55, (S)-(−)-N-[[3-[4-(3,6-Dihydro-2H-thiopyran-4-yl)phenyl]-2-oxo-5-oxazolidinyl]methyl]acetamide S,S-dioxide]", "ED50": 2.30}, {"molecule": "CC(=O)NC[C@H]1CN(c2ccc(C3=CCN(C=O)CC3)c(F)c2)C(=O)O1", "note": "[Example 56]", "ED50": 4.40}, {"molecule": "CC(=O)NC[C@H]1CN(c2ccc(C3=CC[S+]([O-])CC3)c(F)c2)C(=O)O1", "note": "(stereo partly drawn) [Example 63, (S)-(−)-N-[[3-[4-(3,6-Dihydro-2H-thiopyran-4-yl)-3-fluoropheny]-2-oxo-5-oxazolidinyl]methyl]acetamide S-oxide]", "ED50": 4.90}, {"molecule": "CC(=O)NC[C@H]1CN(c2ccc(C3=CC[S+]([O-])CC3)cc2)C(=O)O1", "note": "(stereo partly drawn) [Example 64, (S)-(−)-N-[[3-[4-(3 6-Dihydro-2H-thiopyran-4-yl)phenyl]-2-oxo-5-oxazolidinyl]methyl]acetamide S-oxide]", "ED50": 4.60}, {"molecule": "CC(=O)NC[C@H]1CN(c2ccc(C3=CCCN(C(=O)CO)C3)c(F)c2)C(=O)O1", "note": "[Example 71, (S)-N-[[3-[4-[1-(Hydroxyacetyl)-5,6-dihydro-2H-pyridin-3yl]-3-fluoropheny]-2-oxo-5-oxazolidinyl]methyl]acetamide]", "ED50": 13.4}, {"molecule": "(5S)-N-[[3-[3-Fluoro-4-[1-(formyl)-3-pyrrolidinyl]phenyl]-2-oxo-5-oxazolidinyl]methyl] [Example 45]", "ED50": 2.80}, {"molecule": "(S)-(−)-N-[[3-[3-Fluoro-4-(dihydrothien-3-yl)-phenyl]-2-oxo-5-oxazolidinyl]methyl]acetamide [Example 67]", "ED50": 13.3}]}, {"system": "Staphylococcus aureus or Streptococcus species", "assay": "Murine Assay: in vivo antimicrobial activity, survival of mice infected intraperitoneally with bacteria", "settings": "Table 2; female mice; treatment 1 h and 5 h after infection, oral intubation or subcutaneous; survival over six days; probit analysis of mortality ratios; read-out: ED50", "protocol": "as §1", "units": {"ED50": "mg/kg"}, "values": [{"molecule": "CC(=O)NC[C@H]1CN(c2ccc(C3=CCN(C(=O)COC(C)=O)CC3)cc2)C(=O)O1", "note": "[Example 59, (S)-(−)-N-[[2-Oxo-3-[4-[1-[(acetoxy)acetyl]-3,6-dihydro-2H-pyridin-4-yl]phenyl]-5-oxazolidinyl]methyl]acetamide]", "ED50": 4.2}, {"molecule": "CC(=O)NC[C@H]1CN(c2ccc(C3=CCN(C(=O)CO)CC3)cc2)C(=O)O1", "note": "[Example 60, (S)-(−)-N-[[3-[4-[1-(Hydroxyacetyl)-3,6-dihydro-2H-pyridin-4-yl]phenyl]-2-oxo-5-oxazolidinyl]methyl]acetamide]", "ED50": 3.1}, {"molecule": "CC(=O)NC[C@H]1CN(c2ccc(C3=CCN(C=O)CC3)cc2)C(=O)O1", "note": "[Example 61, (S)-(−)-N-[[3-[4-[1-(Formyl)-3,6-dihydro-2H-pyridin-4-yl]phenyl]-2-oxo-5-oxazolidinyl]methyl]acetamide]", "ED50": 6.1}, {"molecule": "CC(=O)NC[C@H]1CN(c2ccc(C3(F)CCN(C=O)CC3)c(F)c2)C(=O)O1", "note": "[Example 74, (S)-(−)-N-[[3-[4-[1-Formyl-4-fluoro-4-piperidinyl]-3-fluorophenyl]-2-oxo-5-oxazolidinyl]methyl]acetamide]", "ED50": 10.3}, {"molecule": "CC(=O)NC[C@H]1CN(c2ccc(C3=CCN(C(=O)CO)CCC3)c(F)c2)C(=O)O1", "note": "[Example 76, (S)-(−)-N-[[3-[4-[1-(Hydroxyacetyl)-2,3,4,7-tetrahydro-1H-azepin-5-yl]-3-fluorophenyl]-2-oxo-5-oxazolidinyl]methyl]acetamide]", "ED50": "> 20"}, {"molecule": "CC(=O)NC[C@H]1CN(c2ccc(C3=CCCN(C(=O)CO)CC3)c(F)c2)C(=O)O1", "note": "[Example 78, (S)-(−)-N-[[3-[4-[1-(Hydroxyacetyl)-2,3,6,7-tetrahydro-1H-azepin-4-yl]-3-fluorophenyl]-2-oxo-5-oxazolidinyl]methyl]acetamide]", "ED50": 6}, {"molecule": "CC(=O)NC[C@H]1CN(c2ccc(C3CN(C=O)C3)c(F)c2)C(=O)O1", "note": "[Example 84, (S)-N-[[3-[3-Fluoro-4-[1-(formyl)-3-azetidinyl]phenyl]-2-oxo-5-oxazolidinyl]methyl]acetamide]", "ED50": 6.5}]}, {"system": "not given", "assay": "not given", "settings": "not given", "units": {"melting point": "°C"}, "values": [{"molecule": "CC(=O)NC[C@H]1CN(c2ccc(C3=CCCCO3)c(F)c2)C(=O)O1", "note": "[Example 80, (S)-N-[[3-[3-Fluoro-4-(3,4-dihydro-2H-pyran-6-yl)phenyl]-2-oxo-5-oxazolidinyl]methyl]acetamide]", "melting point": "161 to 163"}]}]}
